“Also recorded” adds a separate entry of the source. Non-standard residues stand in square brackets, D forms with d. Residues, ends and D or L forms follow the SMILES beside them. 1Nal = N[C@@H](Cc1cccc2ccccc12)C(=O)O; NMeF = CN[C@@H](Cc1ccccc1)C(=O)O; Cha = N[C@@H](CC1CCCCC1)C(=O)O; dCha = N[C@H](CC1CCCCC1)C(=O)O
T1: C5a receptor (Homo sapiens, UniProt P21730)
T1 construct: followed by a 20 μL aliquot of neutrophil membrane; endogenous in cells
T1 sequence (P21730 1-350): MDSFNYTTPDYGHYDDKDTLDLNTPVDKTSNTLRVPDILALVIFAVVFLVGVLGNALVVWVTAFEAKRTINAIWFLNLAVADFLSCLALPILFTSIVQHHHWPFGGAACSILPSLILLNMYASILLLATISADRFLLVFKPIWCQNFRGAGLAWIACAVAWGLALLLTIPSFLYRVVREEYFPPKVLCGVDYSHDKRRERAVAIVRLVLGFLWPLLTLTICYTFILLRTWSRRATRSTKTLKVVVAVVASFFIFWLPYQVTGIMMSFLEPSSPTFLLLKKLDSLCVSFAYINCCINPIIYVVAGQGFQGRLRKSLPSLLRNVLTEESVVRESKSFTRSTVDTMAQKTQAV


Tests used:
C5a receptor = target: T1, C5a receptor; assay: Agonist activity over all C5a induced responses (chemotaxis, MPO release, calcium flux, GTPase activity, GTPγ-S binding); format: cell-based; details: C089 tested up to and including 100 μM
Method: The EC50 measures the concentration of compound at which a 50% maximal stimulation of a given biological response induced by C5a is achieved (chemotaxis, MPO release, calcium flux, GTPase activity or GTPγ-S binding), and the IC50 is the concentration at which 50% maximal inhibition of C5a binding is achieved.
(§1) This assay was performed on human neutrophils as previously reported and it is a measure of C5a or peptide induced exocytosis (Rollins, T. E. and Springer, M. S. (1985) J. Biol. Chem. 260, 7157-7160).
Ligand induced Ca^2+ fluxes were measured by following the change in Indo-1 induced fluorescence on a FACS analyzer as previously described (Van Riper, G., Siciliano, S. J., Fischer, P. A., Meurer, R., Springer, M. S. and Rosen, H. (1993) J. Exp. Med. 177, 851-856.).
This assay is a modification of the procedure described by Sims et. al. (Sims, T. J., Geissler, F. T. and Page, R. C. (1985) J. lmmunol. Meth. 78, 279-291 ). Chemotaxis was assayed in a 48 well Neuro Probe chamber (Neuro Probe, Bethesda, MD) using ^51 Cr-labelled cells. […] After preforming a gradient for 30 minutes at 37° C., 2×10^5 labelled cells were added to the upper chamber and allowed to migrate at 37° C. for one hour. The upper two polycarbonate filters were then discarded and the formed wells cut from the nitrocellulose membrane. The radioactivity present in these filters is a measure of the number of cells that migrated through both polycarbonate filters.
(§2) The method of Kupper et al. (Kupper, R. W., Dewald, B., Jakobs, K. H., Baggiolini, M. and Gierschik, P. (1992) Biochem. J. 282, 429-434) was adapted for use in microtiter plates. Neutrophil membranes were suspended in 50 mM triethanolamine-HCl, 5 mM MES, pH 7.3, containing 1 mM EDTA, 5 mM MgCl2, 143 mM NaCl, 0.16 % BSA, 1 mM ouabain, 1 mM AMP-PNP, 0.5 mM ATP, 2.5 U/mL creatine phosphokinase,. 10 mM creatine phosphate, 0.1 mM PMSF and 10 ng/mL each of leupeptin, aprotinin and chymostatin. 50 μL of membranes containing 1-5 μg protein were added to 50 μL of the same buffer containing the test agent and 0.25 μM [γ-^32 P]-GTP (2,000 cpm/pmol) in the wells of a U-shaped microtiter plate. After incubation for 15-30 rain at 29° C., 100 μL of a 10% (w/v) charcoal suspension in 100 mM H3 PO4 was added and plates were centrifuged at 2000 rpm for 5 min. 100 μL of the supernatant was transferred to an Optiplate microtiter plate and 100 μL of Microscint-40 scintillation cocktail was added. Plates were counted in a Packard TopCount microtiter plate counter.

human neutrophils = assay: Degranulation, myeloperoxidase (MPO) release from human neutrophils (agonism); format: cell-based; details: for EC50: MPO release, read-out: ED50 for degranulation; for EC50/IC50 (degranulation/binding): ratio degranulation EC50 to binding IC50
Method: FIG. 5A and 5B. Degranulation and Ca^2+ responses to the hexapeptides. […] The ED50 's for the degranulation are: C5a, 0.5 nM; C028, 0.2 μM; C026, 1 μM. C5a, maximally, released 57% of the total cellular content of MPO. The ability of these molecules to elicite a Ca^2+ -flux is shown in B. The concentrations used for C028 (10 μM), C026 (10 μM), C061 (100 μM) are those which produce a maximal flux. A saturating concentration was also used for C5a (1 nM).
as §1
The functional properties of two of the peptides, C026, and C028, were originally described by Mollison et. al (Mollison, K. W., Krause, R. A., Fey, T. A., Miller, L., Wiedeman, P. e., Kawai, M., Lane, B., Luly, J. R. and Carter, G. W. (1992) FASEB J. 6, A2058). […] We have reinvestigated the degranulating activities of these peptides as measured by the release of myeloperoxidase (MPO) from human neutrophils. […] The EC50 /IC50 (degranulation/binding) for C028 is 8, the same as that measured for C5a (Table II, FIG. 5A). […] However, the difference in activity between C026 and C028 is significant and reproducible. Since the structural difference between the two is the substitution of an aromatic for an aliphatic residue (Phe for Cha) we chose to make additional changes at position 5 which further increased aromaticity. […] To further examine whether the differences in activity between the peptides reflects the increased aromaticity we synthesized a molecule with Leu, an aliphatic amino acid, at position 5 (C068, Table II).

[1] = tested on: human neutrophil membranes; assay: GTPase activity in neutrophil membranes (G protein activation); format: biochemical
From the text: FIG. 6A and 6B. Chemotaxis and G protein activation elicited by the hexapeptides.
Since C5a evokes such a plethora of biological responses, it is difficult to ascertain a molecule's overall functional properties from any subset of responses. […] An alternative to investigating all of the responses generated by the C5a receptor, is to determine a molecule's ability to stimulate G protein activation. Such a measurement should give an integrated view of a molecule's agonist properties. As a measure of G protein activation we have investigated the peptides' abilities to stimulate GTPase activity in human neutrophil membranes:
as §2

Molecule | agonist activity in words, all responses (C5a receptor) | degranulating activity in words (human neutrophils; FIG. 5A) | stimulation of GTPase activity / G protein activation in words ([1]; FIG. 6B) | EC50 (human neutrophils; FIG. 5A) | EC50/IC50 (degranulation/binding) (human neutrophils) | EC50 ([1]; FIG. 6B, read-out: ED50 for stimulation of GTPase activity) | MPO release relative to the maximal release produced by C5a or C028 (human neutrophils; maximal effect, FIG. 5A) | release of total cellular MPO (human neutrophils; 0.4 nM C5a or 8 nM IL-8, cells without C089) | maximal release of total cellular content of MPO (human neutrophils; maximal, FIG. 5A) | GTPase activity ([1]; 3 nM C5a, absence of C089, raised from 46)
CC(C)C[C@H](NC(=O)[C@H](CC1CCCCC1)NC(=O)[C@H](CC1CCCCC1)NC(=O)[C@H](C)NC(=O)[C@H](CCCCN)NC(=O)[C@H](Cc1ccccc1)NC(=O)[C@@H](N)Cc1ccc(O)cc1)C(=O)N[C@H](Cc1ccccc1)C(=O)N[C@@H](CCCNC(=N)N)C(=O)O [C009, Tyr Phe Lys Ala Cha Cha Leu dPhe Arg] (H-YFKA[Cha][Cha]L[dF]R-OH) | C5a agonist | – | – | – | – | – | – | – | – | –
CN[C@@H](Cc1ccccc1)C(=O)N[C@@H](CCCCN)C(=O)N1CCC[C@H]1C(=O)N[C@H](CC1CCCCC1)C(=O)N[C@@H](Cc1c[nH]c2ccccc12)C(=O)N[C@H](CCCNC(=N)N)C(=O)O [C089] | without agonist activity in any of the assays; also recorded: do not induce a response; also recorded: completely devoid of agonist activity | totally devoid of degranulating activity | does not stimulate G protein activation; also recorded: fails entirely to stimulate GTP hydrolysis | – | – | – | – | – | – | –
CN[C@@H](Cc1ccccc1)C(=O)N[C@@H](CCCCN)C(=O)N1CCC[C@H]1C(=O)N[C@H](CC1CCCCC1)C(=O)N[C@@H](CC1CCCCC1)C(=O)N[C@H](CCCNC(=N)N)C(=O)O [C028, MePhe Lys Pro dCha Cha dArg] (H-[NMeF]KP[dCha][Cha][dR]-OH) | almost complete agonists of all of these responses | full agonist for degranulation | stimulates as much GTPase activity as does C5a | 0.2 µM | 8 | 0.1 µM | – | – | – | –
CN[C@@H](Cc1ccccc1)C(=O)N[C@@H](CCCCN)C(=O)N1CCC[C@H]1C(=O)N[C@H](CC1CCCCC1)C(=O)N[C@@H](Cc1ccccc1)C(=O)N[C@H](CCCNC(=N)N)C(=O)O [C026, NMeF--K--P-dCha-F-dR] (H-[NMeF]KP[dCha]F[dR]-OH) | – | partial agonist for degranution induction; also recorded: retains substantial degranulating activity | full agonist in chemotaxis or C5a receptor-linked G-protein activation; also recorded: somewhat reduced ability to stimulate the GTP hydrolysis | 1 µM | 20 | – | 50% | – | – | –
CN[C@@H](Cc1ccccc1)C(=O)N[C@@H](CCCCN)C(=O)N1CCC[C@H]1C(=O)N[C@H](CC1CCCCC1)C(=O)N[C@@H](Cc1cccc2ccccc12)C(=O)N[C@H](CCCNC(=N)N)C(=O)O [C061] (H-[NMeF]KP[dCha][1Nal][dR]-OH) | – | totally devoid of degranulating activity | significantly lower GTPase activity | – | – | – | – | – | – | –
C5a: 74 amino acid protein derived from the fifth component of serum complement during complement activation (protein, UniProt P01031 678-751, looked up, C5a anaphylatoxin) C5a anaphylatoxin: TLQKKIEEIAAKYKHSVVKKCCYDGACVNNDETCEQRAARISLGPRCIKAFTECCVVASQLRANISHKDMQLGR | – | – | – | 0.0005 µM | 8 | – | – | 22% | 57% | 64 pmol/min/mg protein

— patent US5614370A, “Assay to identify human C5a antagonists and agonists” (Merck & Co., Inc., priority 1994, dated 1997)
